Measured values taken from PubChem BioAssay (NCI).
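Values below derive from 48-hour exposures of cells grown in 96-well plates, with endpoints linearly interpolated between the two concentrations bracketing the appropriate inhibition level. Here, GI50 denotes the concentration required for 50% inhibition of growth. The concentration for full growth arrest is given as TGI.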

Legend:
Assay in all cases: NCI-60 cell line screen, 48 h
DU-145 prostate = system: DU-145 prostate
LOX IMVI melanoma = system: LOX IMVI melanoma
IGROV1 ovarian = system: IGROV1 ovarian
RPMI-8226 leukemia = system: RPMI-8226 leukemia
MALME-3M melanoma = system: MALME-3M melanoma
PC-3 prostate = system: PC-3 prostate
HCT-116 colon = system: HCT-116 colon
UACC-257 melanoma = system: UACC-257 melanoma
SK-MEL-2 melanoma = system: SK-MEL-2 melanoma
HCC-2998 colon = system: HCC-2998 colon
OVCAR-8 ovarian = system: OVCAR-8 ovarian
SF-295 CNS = system: SF-295 CNS
OVCAR-4 ovarian = system: OVCAR-4 ovarian
U251 CNS = system: U251 CNS
ACHN renal = system: ACHN renal

Row | SMILES | TGI (DU-145 prostate) | TGI (LOX IMVI melanoma) | TGI (IGROV1 ovarian) | TGI (RPMI-8226 leukemia) | TGI (MALME-3M melanoma) | TGI (PC-3 prostate) | TGI (HCT-116 colon) | TGI (UACC-257 melanoma) | TGI (SK-MEL-2 melanoma) | TGI (HCC-2998 colon) | TGI (OVCAR-8 ovarian) | TGI (SF-295 CNS) | TGI (OVCAR-4 ovarian) | TGI (U251 CNS) | TGI (ACHN renal) | GI50 (MALME-3M melanoma) | GI50 (OVCAR-4 ovarian)
1 | C=CCOC1OC(CS(=O)(=O)O)C(O)C(O)C1O (stereo not drawn) | > 100 µM | > 100 µM | > 100 µM | > 100 µM | > 100 µM | > 100 µM | > 100 µM | > 100 µM | > 100 µM | > 100 µM | > 100 µM | > 100 µM | > 100 µM | > 100 µM |  |  | 
2 | Nc1ccc2nc3ccc(N)cc3[n+](-c3ccccc3)c2c1 | > 100 µM | 75.9 µM | > 100 µM | > 100 µM | 74.7 µM | > 100 µM | 97.3 µM | 68 µM | > 100 µM | > 100 µM |  | > 100 µM | > 100 µM | > 100 µM | > 100 µM |  | 
3 | O=c1[nH]/c(=C/c2ccc(OCc3ccccc3)cn2)c(=O)[nH]/c1=C/c1ccc(Cl)cc1 | > 100 µM | > 100 µM | > 100 µM | > 100 µM | > 100 µM | > 100 µM | > 100 µM | > 100 µM | > 100 µM | > 100 µM | > 100 µM | 29.4 µM | > 100 µM | > 100 µM | > 100 µM |  | 
4 | CCCCNc1c(CN)cnc2cc(Cl)ccc12 | 86.8 µM | 29.9 µM | 34.4 µM | 37 µM | 34 µM | 43.1 µM | 35.9 µM | 26.5 µM | 33.3 µM | 9.63 µM | 33.8 µM | 29.8 µM | 40.1 µM | 30.4 µM | 58.7 µM |  | 
5 | CCOC(=O)c1sc2nc(SC)nc3c2c1NCN3c1ccc2c(c1)OCCCO2 | > 100 µM | > 100 µM | > 100 µM | > 100 µM | > 100 µM | > 100 µM | > 100 µM | > 100 µM | > 100 µM | > 100 µM | > 100 µM | 5.1 µM | > 100 µM | 57.7 µM | > 100 µM |  | 
6 | O=C(N/N=C/c1ccc([N+](=O)[O-])cc1)c1cccc2nc3ccccc3nc12 | > 100 µM | > 100 µM | > 100 µM | > 100 µM | > 100 µM | > 100 µM | > 100 µM | > 100 µM | > 100 µM |  | > 100 µM | > 100 µM | > 100 µM | > 100 µM | > 73.8 µM |  | 
7 | C(=C\c1nccs1)/c1cccc(/C=C/c2nccs2)n1 | > 50 µM | > 50 µM | > 50 µM | > 50 µM | > 50 µM | > 50 µM | > 50 µM | > 50 µM | > 50 µM | > 50 µM | > 50 µM | > 50 µM | > 50 µM | > 50 µM | > 50 µM |  | 
8 | Cc1ccc2cc3c(ccc4ccccc43)c3c2c1CC3 | > 100 µM | > 100 µM | > 100 µM | > 100 µM | > 100 µM | > 100 µM | > 100 µM | > 100 µM | > 100 µM | > 100 µM | > 100 µM | > 100 µM | > 100 µM | > 100 µM | > 100 µM | > 100 µM | > 100 µM
9 | CC(=O)OC1COC(n2nc(/C=C/c3ccc(Cl)cc3)c(=O)n(/N=C/c3ccccc3)c2=S)C(OC(C)=O)C1OC(C)=O (stereo not drawn) | > 100 µM | > 100 µM | > 100 µM | > 100 µM | > 100 µM | > 100 µM | > 100 µM | > 100 µM | > 100 µM | > 100 µM | > 100 µM | > 100 µM | > 100 µM | > 100 µM | > 100 µM |  | 
10 | Cc1nc(Nc2ccc(F)cc2)c2sc(=S)n(-c3ccc(F)cc3)c2n1 | 26.2 µM | 17 µM | 22.4 µM | 21.9 µM | 28.8 µM | 35.6 µM | 15 µM | 26.2 µM | 28.6 µM | 24.7 µM | 35.9 µM | 27.3 µM | 40.8 µM | 27.8 µM | 27 µM |  | 
11 | COc1ccccc1N1C(Cl)C(=O)C1c1c[nH]c2ccccc12 (stereo not drawn) |  |  | > 100 µM | > 100 µM |  |  | > 100 µM | > 100 µM | > 100 µM |  | > 100 µM | > 100 µM | > 100 µM | > 100 µM |  |  | 
12 | COc1cccc(Nc2nc(-c3cccs3)nc3ccc(Br)cc23)c1 | > 100 µM | > 100 µM | > 100 µM | > 100 µM | > 100 µM | > 100 µM | > 100 µM | > 100 µM | > 100 µM |  | > 100 µM | > 100 µM |  | > 100 µM | > 100 µM |  | 
13 | c1ccc(C(c2ccccc2)[P+](c2ccccc2)(c2ccccc2)c2ccccc2)cc1 |  | 1.52 µM | 8.64 µM | 1.28 µM | 14.7 µM |  | 5.02 µM | 3.17 µM | 1.25 µM | 11.7 µM | 13.5 µM | 7.27 µM | 10 µM | 12.1 µM |  |  | 
